Laboratory results from patent publication US12629370B2, “Treatment of prostate cancer” (Sumitomo Pharma Co., Ltd., priority 2016, dated 2026).
“And” between values parts separate entries of the source, which are not always exact repeats. Equal entries are not always repeated. “Also recorded” adds a separate entry of the source.

What was measured:
[1] = Example 6: plasma concentration of unchanged Compound 1 (LC-MS/MS); type: in vivo, human
Procedure: Subjects in Cohort 1 received a load dose of 320 mg and a maintenance dose of 80 mg; subjects in Cohort 2 received a load dose of 320 mg and a maintenance dose of 120 mg; subjects in Cohort 3 received a load dose of 320 mg and a maintenance dose of 160 mg; and subjects in Cohort 4 received a load dose of 360 mg and a maintenance dose of 120 mg.
In addition to the safety assessments, efficacy assessments were also performed according to the study schedule, and the Compound 1 formulation was administered until each subject met the discontinuation criteria.

[2] = Example 7: single and multiple dose pharmacokinetics and food effect in healthy men; type: in vivo, human; conditions: for half-life: read-out: mean plasma T1/2 (converted)
Procedure: Samples were analyzed using validated liquid chromatography with tandem mass spectrometry (LC/MS/MS) methods. The LLOQ was 0.0100 ng/ml for plasma and 0.500 ng/ml for urine.
Then, a formal assessment was performed using both analysis of variance (ANOVA) and power model approaches. […] In Part 2, steady state attainment was determined based on visual inspection of mean observed predose plasma concentration during multiple dosing (Ctrough) versus time profiles at each dose level. Noncompartmental analysis of Part 3 and 4 data were not planned given the limited number of postdose samples collected per subject on Days 1 and 28.

[3] = tested on: serum testosterone; experiment: Example 8: serum testosterone in men with advanced prostate cancer, versus leuprolide acetate; type: in vivo, human
Excerpt: Eligible men were aged ≥18 years with a histologically confirmed diagnosis of prostate adenocarcinoma, and were candidates for ADT for the management of hormone-sensitive prostate cancer with one of the following clinical disease states: advanced localized disease not suitable for primary surgical or radiation therapy; evidence of PSA biochemical or clinical relapse following primary surgery or radiation therapy of curative intent; or newly diagnosed metastatic disease that was asymptomatic and without visceral involvement. […] Patients with advanced, localized MON1 or M1 disease with clinically significant symptoms or visceral involvement, who required immediate GnRH therapy, chemotherapy, or radiation therapy were not eligible for the trial.
Serum testosterone levels were measured at each visit.

[4] = tested on: FSH; experiment: Example 8: FSH levels; type: in vivo, human;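 further: FSH determined at every study visit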
Procedure: Patients on leuprorelin received their final injection at week 37, day 1, and the week 49, day 1 visit was considered the end of leuprorelin exposure. Patients receiving leuprorelin at visits at 16 (EOT), 20 (follow-up visit), and 24 (EOS) weeks after the last leuprorelin injection.
FSH levels were also measured at each visit.

[5] = Example 7: serum testosterone lowering in healthy men; type: in vivo; conditions: male, human, plasma, oral, maintenance doses of 80 mg or greater
[6] = FIG. 22
Excerpt: Table printed on a drawing sheet, FIG. 22
First reader's note: The rows 'Plasma' and 'Urine' are section headings giving the matrix; the raised marks a and c are printed, but their footnotes are not on the sheet, and the meaning of the values in brackets is not stated.)

[7] = Compound 1 80 or 120 mg QD after 320 mg load
[8] = Compound 1 Total, End of Treatment
[9] = Compound 1 Total, Week 49, Day 1
[10] = Compound 1 Total, Week 2, Day 1
[11] = Compound 1 Total, Week 5, Day 1
[12] = Compound 1 Total, Week 13, Day 1
[13] = Compound 1 Total, Week 25, Day 1

## CONC(=O)Nc1ccc(-c2sc3c(c2CN(C)C)c(=O)n(-c2ccc(OC)nn2)c(=O)n3Cc2c(F)cccc2F)cc1 [Compound 1, N-(4-(1-(2,6-difluorobenzyl)-5-((dimethylamino)methyl)-3-(6-methoxy-3-pyridazinyl)-2,4-dioxo-1,2,3,4-tetrahydrothieno[2,3-d]pyrimidin-6-yl)phenyl)-N′-methoxyurea]
[1]; Part A Day 1, load dose 320 mg, across cohorts
  median Tmax: 1.5 h
[1]; Part A Days 14 and 28, 80 to 160 mg QD
  mean Cmax, Ctrough and mean plasma AUC24 versus dose: generally increased proportionately with dose
[1]; Part A Days 14 and 28, maintenance 80 to 160 mg QD
  median Tmax: 0.5 to 2.0 h
[1]; male, human, plasma, oral, Part A Day 1, load dose 320 mg, across cohorts, read-out: median Tmax
  Tmax: 1 h
[1]; male, human, plasma, oral, Part A Day 28, across cohorts, read-out: mean plasma T1/2
  half-life: 66.5 to 78.1 h
[2]; 180 mg single dose
  decrease in mean Cmax and mean plasma AUC0-∞ on co-administration with food versus fasting: approximately 50%
  median Tmax, fasting conditions: 1.75 h
[2]; 180 mg single dose, high fat breakfast
  median Tmax, fed conditions: 5.00 h
[2]; 180 mg, Part 2 Day 1 versus Part 1 fasted
  decrease in mean plasma AUC (systemic exposure), dosing 30 min before standardized meal versus fasted: approximately 28%
[2]; 20 to 180 mg QD
  dose proportionality of mean Cmax at steady state: increased slightly more than dose-proportionately
  dose proportionality of mean plasma AUC0-tau at steady state: increased in a dose-proportional manner
[2]; across all doses studied
  median Tmax: ~2 h
[2]; after single and repeat dosing
  Compound 1 excreted unchanged in urine: Less than 4%
[2]; male, human, plasma, oral, 180 mg single dose, high fat breakfast, read-out: median Tmax, fed conditions
  Tmax: 5 h
[2]; male, human, plasma, oral, across the 20 to 180 mg QD dose range
  half-life: 36 to 65 h
[2]; male, human, plasma, oral, repeat dosing, 20 mg QD
  half-life: 64.5 h
[2]; male, human, plasma, oral, repeat dosing, 180 mg QD
  half-life: 35.8 h
[2]; single doses of 80 mg to 360 mg
  dose proportionality of mean Cmax and mean plasma AUC0-∞: dosed proportionally over 80-360 mg range; also recorded: approximate dose-proportional increases
[2]; steady state
  increase in systemic exposure following QD dosing: approximately 2 fold
[3]; 80 mg QD, Baseline
  Testosterone Mean (Std Dev): 13.755 (4,7256) nmol/L
  Testosterone Median: 12.700 nmol/L
[3]; 80 mg QD, End of Study
  Testosterone Mean (Std Dev): 6.933 (6.4298) nmol/L
  Testosterone Median: 5.340 nmol/L
[3]; 80 mg QD, End of Treatment
  Testosterone Mean (Std Dev): 7.211 (9.2178) nmol/L
  Testosterone Median: 3.125 nmol/L
[3]; 80 mg QD, Follow-Up
  Testosterone Mean (Std Dev): 11.004 (5.9971) nmol/L
  Testosterone Median: 13.185 nmol/L
[3]; 80 mg QD, Week 49, Day 1
  Testosterone Median: 0.380 nmol/L
[3]; 120 mg QD, Baseline
  Testosterone Median: 14.350 nmol/L
[3]; 120 mg QD, EOS (12 weeks after stopping)
  Median testosterone: 322.8 ng/dL
[3]; 120 mg QD, EOT (4 weeks after end of treatment)
  Median testosterone: 72.9 ng/dL
[3]; 120 mg QD, End of Study
  Testosterone Mean (Std Dev): 9.565 (7.6479) nmol/L
  Testosterone Median: 11.210 nmol/L
[3]; 120 mg QD, End of Treatment
  Testosterone Mean (Std Dev): 3.592 (3.7809) nmol/L
  Testosterone Median: 2.530 nmol/L
[3]; 120 mg QD, Follow-Up
  Testosterone Median: 11.450 nmol/L
[3]; 120 mg QD, Follow-up visit (8 weeks after stopping)
  Median testosterone: 329.8 ng/dL
[3]; 120 mg QD, Week 49, Day 1
  Testosterone Mean (Std Dev): 0.443 (0.2745) nmol/L
  Testosterone Median: 0.365 nmol/L
[3]; 4 weeks after the end of treatment
  serum testosterone after stopping treatment: > 50 ng/dL
[3]; [7]
  visit by which average serum testosterone decreased below medical castration threshold of 50 ng/dL: Day 4
  visit by which average serum testosterone decreased below profound castration threshold of 20 ng/dL: Week 5 Day 1
[3]; Compound 1 Total, Baseline
  Testosterone Mean (Std Dev): 14.4 nmol/L
  Testosterone Median: 13.600 nmol/L
[3]; Compound 1 Total, End of Study
  Testosterone Mean (Std Dev): 8.249 (7.0702) nmol/L
  Testosterone Median: 7.425 nmol/L
[3]; [8]
  Testosterone Mean (Std Dev): 5.039 (6.6432) nmol/L
  Testosterone Median: 2.530 nmol/L
[3]; Compound 1 Total, Follow-Up
  Testosterone Mean (Std Dev): 12.094 (5.9829) nmol/L
  Testosterone Median: 11.970 nmol/L
[3]; [9]
  Testosterone Mean (Std Dev): 0.487 (0.3867) nmol/L
  Testosterone Median: 0.380 nmol/L
[3]; Compound 1 groups, weeks 5-49
  median serum testosterone: < 20 ng/dL
[3]; in vivo
  testosterone surge or tumor flare after treatment initiation: No serum testosterone surge or resultant tumor flare occurred
[4]; 80 mg QD, Baseline
  FSH Mean (Std Dev): 14.729 (14.3473) IU/L
  FSH Median: 9.550 IU/L
[4]; 80 mg QD, Week 2, Day 1
  FSH Mean (Std Dev): 3.112 (3.0612) IU/L
  FSH Median: 2.100 IU/L
[4]; 80 mg QD, Week 5, Day 1
  FSH Mean (Std Dev): 1.248 (2.6737) IU/L
  FSH Median: 0.400 IU/L
[4]; 80 mg QD, Week 13, Day 1
  FSH Mean (Std Dev): 1.137 (2.4242) IU/L
  FSH Median: 0.500 IU/L
[4]; 80 mg QD, Week 25, Day 1
  FSH Mean (Std Dev): 1.090 (0.9932) IU/L
  FSH Median: 0.800 IU/L
[4]; 80 mg QD, Week 49, Day 1
  FSH Mean (Std Dev): 1.802 (1.3956) IU/L
  FSH Median: 1.450 IU/L
[4]; 120 mg QD, Baseline
  FSH Median: 11.050 IU/L
[4]; 120 mg QD, Week 2, Day 1
  FSH Mean (Std Dev): 3.183 (2.8956) IU/L
  FSH Median: 2.300 IU/L
[4]; 120 mg QD, Week 5, Day 1
  FSH Mean (Std Dev): 1.035 (1.0479) IU/L
  FSH Median: 0.600 IU/L
[4]; 120 mg QD, Week 13, Day 1
  FSH Mean (Std Dev): 0.908 (0.8104) IU/L
  FSH Median: 0.600 IU/L
[4]; 120 mg QD, Week 25, Day 1
  FSH Mean (Std Dev): 1.344 (0.9675) IU/L
  FSH Median: 1.200 IU/L
[4]; 120 mg QD, Week 49, Day 1
  FSH Mean (Std Dev): 1.938 (1.2169) IU/L
  FSH Median: 1.600 IU/L
[4]; 120 mg dose, >10 mIU/mL at baseline
  FSH range over the course of 48 weeks: 0.6-1.6 mIU/mL
[4]; Compound 1 Total, Baseline
  FSH Mean (Std Dev): 15.269 (13.5920) IU/L
  FSH Median: 9.850 IU/L
[4]; [10]
  FSH Mean (Std Dev): 3.147 (2.9653) IU/L
  FSH Median: 2.150 IU/L
[4]; [11]
  FSH Mean (Std Dev): 1.143 (2.0379) IU/L
  FSH Median: 0.550 IU/L
[4]; [12]
  FSH Mean (Std Dev): 1.025 (1.8164) IU/L
  FSH Median: 0.500 IU/L
[4]; [13]
  FSH Mean (Std Dev): 1.215 (0.9838) IU/L
  FSH Median: 0.900 IU/L
[4]; [9]
  FSH Mean (Std Dev): 1.867 (1.3077) IU/L
  FSH Median: 1.500 IU/L
[4]; after 48 weeks of treatment
  median FSH: 1.62 mIU/mL
[5]
  concentration at 28 days: > 4 ng/mL
[6]
  AUC0-24 (ng•h/mL): 1358 (53.1) ng•h/mL and 1878 (51.9) ng•h/mL
  CLr (L/h): 7.29 (13.2) L/h and 7.25 (36.2) L/h and 7.36 (25.9) L/h
  Fe (%): 0.934 (39.4) % and 2.20 (74.7) % and 2.61 (62.3) % and 3.43 (29.4) %
